Data on 23 compounds can be found in the supplement of paper PMC5908809.

Common to all, as to experiment: relative IC50 (inflection point of fitted viability curve, relative to fitted max inhibition); higher = less sensitive
Common to all, as to conditions: 72 h

In one assay the test system is SNK-6 (IL-2 2.5 ng/mL). The procedure:
(§1)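 Drug sensitivity and resistance testing: 5 concentrations over a 10,000-fold range, 72 h at 37 °C, viability by CellTiter-Glo normalised to DMSO and benzethonium chloride controls. IC50 is the inflection point of a logistic fit (min fixed at 0, max fitted), so it is relative to the fitted maximal inhibition. Kept only where fitted max inhibition is at least 50%.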

In a further assay the test system is IMC-1 (IL-2 20 ng/mL). On the procedure: as §1
The subject of another assay is KHYG-1 (IL-2 2.5 ng/mL). On the procedure: as §1
A further assay relates to NKL (IL-2 2.5 ng/mL). The procedure:
as §1

For another assay, the system named is DERL-7 (IL-2 2.5 ng/mL). The procedure: as §1
Another assay concerns KAI3 (IL-2 2.5 ng/mL). On the procedure:
as §1

A further assay deals with NK-92 (IL-2 2.5 ng/mL). On the procedure:
as §1

The term relative IC50 denotes the concentration halfway between the upper and lower plateau of the fitted curve.

`CNC(=O)c1ccc(C)c(-n2c(C)cc(OCc3ccc(F)cc3F)c(Br)c2=O)c1`: the “relative IC50” value in the assay on SNK-6 (IL-2 2.5 ng/mL) was above 1000 nM.

`CCc1cc(Nc2nccc(-c3c(-c4ccc(OC)c(C(=O)Nc5c(F)cccc5F)c4)nc4ccccn34)n2)c(OC)cc1N1CCC(N2CCN(S(C)(=O)=O)CC2)CC1`: the “relative IC50” value in the assay with IMC-1 (IL-2 20 ng/mL), with KHYG-1 (IL-2 2.5 ng/mL), in the assay with NKL (IL-2 2.5 ng/mL) and with SNK-6 (IL-2 2.5 ng/mL) was above 10000 nM in each case.

For the compound `CNc1nc(-c2ccc3c(N)n[nH]c3c2)cc(N2C[C@@H](C(=O)NC3CCCCC3)CC[C@H]2C)n1`, the “relative IC50” value in the assay on DERL-7 (IL-2 2.5 ng/mL) was 248 nM; in the assay with IMC-1 (IL-2 20 ng/mL), above 10000 nM; in the assay with SNK-6 (IL-2 2.5 ng/mL) it was above 10000 nM.

For the compound `O[C@H]1CC[C@H](Nc2ncc3nc(Nc4c(F)cc(F)cc4F)n([C@H]4CCOC4)c3n2)CC1` [Tanzisertib], the “relative IC50” value in the assay with SNK-6 (IL-2 2.5 ng/mL) is above 10000 nM.

Regarding `CON(C)C(=O)N1N=C(c2cc(F)ccc2F)S[C@@]1(CCCN)c1ccccc1` [Filanesib], the “relative IC50” value with IMC-1 (IL-2 20 ng/mL) was 3.15 nM.

As to `COc1cc2ncnc(Oc3cccc(NC(=O)Nc4cc(C(C)(C)C(F)(F)F)on4)c3)c2cc1OC`, in the assay with SNK-6 (IL-2 2.5 ng/mL), the “relative IC50” value is above 10000 nM.

For the compound `O=C(CCBr)N1CCN(C(=O)CCBr)CC1` [Pipobroman], the “relative IC50” value in the assay with SNK-6 (IL-2 2.5 ng/mL) is above 10000 nM.

On to `CCCCCOC(=O)Nc1nc(=O)n([C@@H]2O[C@H](C)[C@@H](O)[C@H]2O)cc1F` [Capecitabine], for which the “relative IC50” value in the assay on DERL-7 (IL-2 2.5 ng/mL) is 2520 nM; with IMC-1 (IL-2 20 ng/mL), above 10000 nM; in the assay with KAI3 (IL-2 2.5 ng/mL), 1080 nM; in the assay with KHYG-1 (IL-2 2.5 ng/mL) it was above 10000 nM; with SNK-6 (IL-2 2.5 ng/mL), 1630 nM.

With `C[C@@H]1CN(Cc2ccc(F)cc2)[C@@H](C)CN1C(=O)c1cc2c(C(=O)C(=O)N(C)C)cn(C)c2cc1Cl` [Talmapimod], the “relative IC50” value with KHYG-1 (IL-2 2.5 ng/mL) and in the assay on SNK-6 (IL-2 2.5 ng/mL) was above 10000 nM each time.

For `COc1ccc(COc2cc3oc(=O)c4cc(C(C)O)ccc4c3cc2OC)cc1` (stereo not given) [Palomid-529], the “relative IC50” value in the assay with KHYG-1 (IL-2 2.5 ng/mL) was found to be 1960 nM; in the assay on NK-92 (IL-2 2.5 ng/mL), 1280 nM.

With `Cc1nc(Nc2ncc(C(=O)Nc3c(C)cccc3Cl)s2)cc(N2CCN(CCO)CC2)n1` [Dasatinib], the “relative IC50” value in the assay on NKL (IL-2 2.5 ng/mL) worked out at 49.8 nM.

For `CC(C)C[C@H](NC(=O)[C@@H](COC(C)(C)C)NC(=O)[C@H](Cc1ccc(O)cc1)NC(=O)[C@H](CO)NC(=O)[C@H](Cc1c[nH]c2ccccc12)NC(=O)[C@H](Cc1cnc[nH]1)NC(=O)[C@@H]1CCC(=O)N1)C(=O)N[C@@H](CCCNC(=N)N)C(=O)N1CCC[C@H]1C(=O)NNC(N)=O` [Goserelin], the “relative IC50” value with SNK-6 (IL-2 2.5 ng/mL) is above 10000 nM.

With `C[C@@H](Oc1cc(-c2cnn(C3CCNCC3)c2)cnc1N)c1c(Cl)ccc(F)c1Cl` [Crizotinib], the “relative IC50” value in the assay on SNK-6 (IL-2 2.5 ng/mL) is above 1000 nM.

With `O=c1ncn2nc(Sc3ccc(F)cc3F)ccc2c1-c1c(Cl)cccc1Cl` [VX 745], the “relative IC50” value was 779 nM in the assay on KAI3 (IL-2 2.5 ng/mL) and 719 nM in the assay with NKL (IL-2 2.5 ng/mL).

`Cc1c(C(=O)Nc2ccc(N3C[C@@H](C)O[C@@H](C)C3)nc2)cccc1-c1ccc(OC(F)(F)F)cc1` [Sonidegib]: the “relative IC50” value in the assay on IMC-1 (IL-2 20 ng/mL) is 2250 nM; in the assay with NK-92 (IL-2 2.5 ng/mL), 1150 nM.

In the case of `N[C@@H]1CCCN(c2c(/C=C3\SC(=O)NC3=O)cccc2-c2ccccc2)C1` [AZD1208], the entries for the “relative IC50” value with DERL-7 (IL-2 2.5 ng/mL) and in the assay with IMC-1 (IL-2 20 ng/mL) were 304 nM and above 10000 nM, respectively.

As to `Cc1ccc(NC(=O)c2ccc(CN3CC[C@H](N(C)C)C3)c(C(F)(F)F)c2)cc1Nc1nccc(-c2cncnc2)n1` [Bafetinib], the “relative IC50” value with NKL (IL-2 2.5 ng/mL) is 136 nM.

Regarding `CN1CCN(C2CCN(C(=O)Nc3cc(Oc4ccc(NC(=O)C5(C(=O)Nc6ccc(F)cc6)CC5)c(F)c4)ccn3)CC2)CC1` [Golvatinib], the “relative IC50” value with KHYG-1 (IL-2 2.5 ng/mL) was 715 nM.

Turning to `Cn1cc(-c2ccc3nnc(Sc4ccc5ncccc5c4)n3n2)cn1` [SGX-523], the “relative IC50” value in the assay with IMC-1 (IL-2 20 ng/mL) and with KHYG-1 (IL-2 2.5 ng/mL) was above 5000 nM each time.

For `CCNC(=O)Nc1ccc(-c2nc3c(c(N4CCOC[C@@H]4C)n2)CCN(C2COC2)C3)cc1` [RG-7603], the “relative IC50” value is 156 nM with DERL-7 (IL-2 2.5 ng/mL), above 2500 nM in the assay with IMC-1 (IL-2 20 ng/mL) and 185 nM with NKL (IL-2 2.5 ng/mL).

Turning to `C[C@]12CC[C@H](O)CC1=CC[C@@H]1[C@@H]2CC[C@]2(C)C(c3cccnc3)=CC[C@@H]12` [Abiraterone], the “relative IC50” value with SNK-6 (IL-2 2.5 ng/mL) was above 5000 nM.

As to `CCc1c(C(=O)C(N)=O)c2c(OCC(=O)O)cccc2n1Cc1ccccc1` [Varespladib], the “relative IC50” value in the assay on IMC-1 (IL-2 20 ng/mL) was above 10000 nM.

Regarding `COc1cc(C(=O)NC2CCN(C)CC2)c(F)cc1Nc1ncc2c(n1)N(C1CCCC1)CC(F)(F)C(=O)N2C` [TAK-960], the “relative IC50” value in the assay with DERL-7 (IL-2 2.5 ng/mL) is above 2500 nM.
